Measured values taken from patent US20210179577A1, “AROMATIC SULFONAMIDE DERIVATIVES FOR THE TREATMENT OF ISCHEMIC STROKE” (Bayer Aktiengesellschaft, priority 2017, published 2021).
Where “and” joins values, the source holds several entries; their conditions need not be identical. Equal values may be shown once.

Columns and labels:
Format in all cases: cell-based
human P2X4 = molecular target: T1, human P2X4 (Homo sapiens, UniProt Q99571); assay: Human P2X4 HEK Cell FLIPR Assay; design: expressed in transfected cells; host or cells: HEK293; details: HEK293 cells, agonist Bz-ATP at EC80; for Emax: percentage of maximal inhibition, read-out: Human P2X4 HEK Cells (FLIPR Assay) avg Efficacy
T1 sequence (Q99571 1-388): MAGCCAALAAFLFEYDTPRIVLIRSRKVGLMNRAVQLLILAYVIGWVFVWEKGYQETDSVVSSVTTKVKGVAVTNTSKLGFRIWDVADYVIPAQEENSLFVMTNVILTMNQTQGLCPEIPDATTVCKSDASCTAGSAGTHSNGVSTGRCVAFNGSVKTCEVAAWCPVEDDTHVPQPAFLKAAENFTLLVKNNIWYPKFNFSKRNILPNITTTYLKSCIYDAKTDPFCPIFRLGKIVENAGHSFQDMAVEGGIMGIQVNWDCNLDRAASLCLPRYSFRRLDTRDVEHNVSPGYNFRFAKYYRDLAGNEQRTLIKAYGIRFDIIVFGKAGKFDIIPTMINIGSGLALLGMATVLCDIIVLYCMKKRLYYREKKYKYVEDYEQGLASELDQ
Method: HEK293 cells stably expressing human P2X4 were plated in poly-D-lysine-coated 384-well plates at a seeding density of 30000 cells/well and incubated overnight. P2X4 function was assessed by measuring intracellular calcium changes using the calcium-chelating dye Fluo8-AM (Molecular Devices) on a fluorescent imaging plate reader (FLEX/FLIPR station; Molecular Devices). On the day of the assay, the medium was removed and the cells were incubated for 30 min at 37° C. and 5% CO2 in 30 μL of dye buffer (Hank's balanced salt solution, 10 mM HEPES, 1.8 mM CaCl2, 1 mM MgCl2, 2 mM probenecid, 5 mM D-glucose monohydrate, 5 μM Fluo8-AM, pH=7.4). Compounds diluted in probenecid buffer (Hank's balanced salt solution, 10 mM HEPES, 1.8 mM CaCl2, 1 mM MgCl2, 2 mM probenecid, 5 mM D-glucose monohydrate, pH=7.4) were added in a volume of 10 μL and allowed to incubate for 30 min at room temperature. The final assay DMSO concentration was 0.5%. The agonist, Bz-ATP (Tocris), was added in a volume of 10 μL at a concentration representing the EC80 value. The EC80 value of Bz-ATP was determined each assay day prior to compound profiling. The fluorescence was measured for an interval of 120 sec at 2 sec intervals. The excitation and emission wavelengths used to monitor fluorescence were 470-495 nm and 515-575 nm, respectively. The data was analyzed based on the increase in peak relative fluorescence units (RFU) compared to the basal fluorescence and the data was normalized to the agonist control. The compounds were tested in triplicates per plate and mean values were plotted in Excel XL-Fit to determine IC50 values, percentage of maximal inhibition and the Hill coefficients.

hP2X4 = molecular target: T2, hP2X4 (Homo sapiens, UniProt Q99571); assay: Human P2X4 HEK Cell Electrophysiology Assay B (QPatch); details: ATP 5 microM, -90 mV; read-out: Human P2X4 HEK Cells (QPatch Electrophysiology) avg IC50
T2 construct: expressed in transfected cells; host or cells: HEK-293 mito-Photina, clone 2a/4
T2 sequence (Q99571 1-388): T1 sequence (Q99571 1-388)
Method: Cell culture conditions: HEK-293 mito-Photina pcDNA3(neo-)/pPURO N/pcDNA3_P2RX4, clone 2a/4 (HEK-293 mito-Photina/hP2RX4) cells were cultured in EMEM Minimum Essential Medium Eagle with Earl's salts Balanced Salt Solution (BioWhittaker cat. BE12-125F) supplemented with 5 mL of 200 mM Ultraglutaminel (BioWhittaker cat. BE17-605E/U1), 5 mL of 100× Penicillin/Streptomycin (BioWhittaker cat. DE17-602E; final concentration 1%), 4 mL of 50 mg/mL G418 (Sigma cat. G8168-100 mL; final concentration 400 μg/mL), 10 μL of 10 mg/mL Puromicin (InvivoGen cat. ant-pr-1; final concentration 0.2 μg/mL) and 50 mL of Fetal Bovine Serum (Sigma cat. F7524; final concentration 10%).
Experimentalprotocol: HEK-293 cell lines are seeded 72 or 96 hours before experiment, at a concentration of 5 or 2.5 million cells, respectively onto a T225 flask. Just before the experiments cells are washed twice with D-PBS w/o Ca2+/Mg2+(Euroclone cat. ECB4004L) and detached from the flask with trypsin-EDTA (Sigma, cat. T4174 diluted 1/10). Cells are then re-suspended in the suspension solution: 25 mL EX-CELL ACF CHO medium (Sigma, cat. C5467); 0.625 mL HEPES (BioWhittaker, cat. BE17-737E); 0.25 mL of 100× Penicillin/Streptomycin (BioWhittaker, cat. DE17-602E), 0.1 mL of Soybean Trypsin Inhibitor 10 mg/mL (Sigma, cat. T6522) and placed on the QPatch 16X.
Compound preparation and storage: Compound stock solutions (10 mM; 100% DMSO; stored at −20° C.) were used. Fresh solutions from stock (1 or 3 mM, 100% DMSO) were prepared just before the experiments (0.1% final DMSO concentration).
Patch clamp analysis with QPatch16X (FIG. 1): Standard whole-cell voltage clamp experiments are performed at room temperature using the multihole technology.
For the voltage clamp experiments on hP2X4, data are sampled at 2 KHz. After establishment of the seal and the passage in the whole cell configuration, the cells are held at −90 mV and the hP2X4 current is evoked by the agonist in the absence (vehicle period, i.e. 0.1% DMSO) or in the presence of the compound under investigation at increasing concentrations; see the application protocol in FIG. 1.
Output: the maximum inward current induced by the agonist (ATP 5 microM).
The intracellular solution contained (mM) 135 CsF, 10 NaCl, 1 EGTA, 10 HEPES (pH 7.2 with CsOH) whereas the extracellular solution (mM) 145 NaCl, 4 KCl, 0.5 MgCl2, 1 CaCl2, […], 10 Glucose (pH 7.4 with NaOH).
For data collection, the Sophion software was used and the analysis was performed off-line using Excel and GraphPad Prism.
When possible, i.e. when the % of inhibition with the highest concentration tested was more than 50%, the dose-response curves data were fitted with the following equation:
[X is log of concentration; Y is normalized response (100% down to 0%, decreasing as X increases); Log IC50 same log units as X; HillSlope is unitless slope factor or hill slope]

endogenous P2X4 channels = molecular target: T3, endogenous P2X4 channels (Homo sapiens, UniProt Q99571); assay: Human Monocyte P2X4 Assay (FLIPR); details: primary human monocytes, 3 μM BzATP, one value per donor; for Emax: read-out: Human P2X4 Monocytes (FLIPR Assay) Efficacy for different donors; for IC50: read-out: Human P2X4 Monocytes (FLIPR Assay) IC50 for different donors
T3 construct: measure calcium influx through endogenous P2X4 channels into primary human monocytes; endogenous in cells; host or cells: primary human monocytes isolated from donor PBMCs
T3 sequence (Q99571 1-388): T1 sequence (Q99571 1-388)
Method: The principle of the assay is to measure calcium influx through endogenous P2X4 channels into primary human monocytes, following activation by 2′,3′-O-(4-benzoyl-benzoyl)-ATP (Bz-ATP). Intracellular calcium concentration changes were measured with a Flipr™ (Molecular Devices) device using a calcium sensitive dye (Fluo-8). In primary monocytes P2X4 is located at the lysosome membrane, therefore exocytosis has to be triggered to expose P2X4 at the cellular membrane.
Human peripheral blood mononuclear cells (PBMCs) from anticoagulated blood (blood cells, BC) were isolated via density gradient centrifugation. Whole blood was diluted 1:3 with PBS. Samples of 30 mL were layered carefully on top of 15 mL Biocoll (BIOCHROM) in 50 mL centrifuge tubes (Falcon). Tubes were centrifuged at 914×g for 25 min at RT without brake. The PBMC layer was removed with a 10 mL pipette and transferred into tubes with ice-cold PBS in a total volume of 50 mL. Cells were washed twice by pelleting at 300×g at 4° C., for 10 min and for 5 min respectively. PBMCs were re-suspended in 10 mL medium (X-vivo, Biozym Scientific) and counted in a Neubauer chamber.
Monocytes were isolated by negative selection using the Monocyte isolation kit II from Miltenyi (#130-091-153) according to the instructions. Isolation should be done fast and cells and solutions should be kept on ice at any time. PBMCs in batches of 10exp8 cells were pelleted (300×g, 10 min) and re-suspended with 300 μL MACS buffer in a 50 mL Falcon tube. FcR Blocking reagent (100 μl) and Biotin-Ab (100 μl) were added, mixed and incubated on ice for 10 min. MACS buffer (300 μL) and anti-Biotin Micro-beads (100 μL) were added, mixed and incubated on ice for 15 min. Cells were washed by pelleting (300×g for 10 min) and re-suspended in 500 μL MACS buffer. For each batch one separation column was placed in the MACS separator and rinsed with 3 mL MACS buffer. The cell suspension was added to the column, followed by 3×3 mL MACS buffer for washing, and the eluent containing the monocytes was collected. Cells were pelleted (300×g for 10 min), re-suspended in X-vivo medium and counted. Monocytes were seeded into fibronectin-coated micro-plates (384-well, black, flat transparent bottom; Corning #3848) at a density of 30,000 cells/well in 50 μL, and cultivated over night (37° C., 5% CO2).
Test substances were dissolved in 100% DMSO at a stock concentration of 10 mM and stored at −20° C. in aliquots. Serial dilutions (2×) were prepared in DMSO and diluted 500× with assay buffer to generate the antagonist plate. In the Flipr measurement, 10 μL per well were transferred (4× dilution) and a final top concentrations of 5 μM and 0.05% DMSO were obtained in the assay. Agonist BzATP was stored at 10 mM in aliquots and diluted to an intermediate concentration of 15 μM to generate the agonist plate. In the Flipr measurement, 10 μL per well were transferred (5× dilution) so that a final assay concentration of 3 μM was obtained.
For the experiment, the medium of the cell plate was discarded manually and 70 μL/well loading buffer was added and incubated for 1 h (37° C., 5% CO2). Loading buffer contained HBSS (w/o calcium/magnesium), 10 mM Hepes pH 7.4, 5 μM Fluo-8 (AM) (Tebu-bio) and 50 mM methylamine (Sigma) to trigger exocytosis. Loading buffer was discarded manually and 30 μL/well low-calcium assay buffer (5 mM KCl, 145 mM NaCl, 0.5 mM CaCl2), 13 mM glucose, 10 mM Hepes pH 7.4) was added. The antagonist plate was transferred (10 μL/well) and after 15 min at RT the agonist plate (10 μL/well) was transferred.
Agonist addition was recorded for 240 seconds after a 10 second baseline. For analysis, a baseline correction was applied, and the maximum of the curve was extracted. Data were normalized towards 0% inhibition (signal at 3 μM BzATP) and 100% inhibition (absence of BzATP stimulation) and fitted with a four-parameter sigmoidal inhibition curve using Prism Graph Pad to obtain IC50 values.

Row | IC50 (human P2X4) [nM] | IC50 (hP2X4) [nM] | Emax (endogenous P2X4 channels) [%] | IC50 (endogenous P2X4 channels) | Emax (human P2X4) [%] | Compound
1 | 140 | 195 | – | – | – | NS(=O)(=O)c1cc(NC(=O)Cc2ccccc2F)ccc1-n1cc(C(F)(F)F)cn1 [Example 20, 2-(2-Fluorophenyl)-N-{3-sulfamoyl-4-[4-(trifluoromethyl)-1H-pyrazol-1-yl]phenyl}-acetamide]
2 | 45 | – | 79 | 141 nM and 34 nM and 91 nM | – | NS(=O)(=O)c1cc(NC(=O)Cc2ccccc2Cl)ccc1-n1cnc(Cl)n1 [Example 24, 2-(2-Chlorophenyl)-N-[4-(3-chloro-1H-1,2,4-triazol-1-yl)-3-sulfamoylphenyl]-acetamide]
3 | 26 | 222 | – | – | – | NS(=O)(=O)c1cc(NC(=O)Cc2ccccc2Cl)ccc1-n1cc(Cl)cn1 [Example 25, 2-(2-Chlorophenyl)-N-[4-(4-chloro-1H-pyrazol-1-yl)-3-sulfamoylphenyl]acetamide]
4 | 31 | – | – | 78 nM and 164 nM | 90 | NS(=O)(=O)c1cc(NC(=O)Cc2ccccc2Cl)ccc1-n1cc(Br)cn1 [Example 28, N-[4-(4-Bromo-1H-pyrazol-1-yl)-3-sulfamoylphenyl]-2-(2-chlorophenyl)acetamide]
5 | 126 | – | 60 | 303 nM and 183 nM and 110 nM | 70 | COc1ccc(CC(=O)Nc2ccc(-n3cc(Cl)cn3)c(S(N)(=O)=O)c2)cc1 [Example 170, N-[4-(4-Chloro-1H-pyrazol-1-yl)-3-sulfamoylphenyl]-2-(4-methoxyphenyl)acetamide]
6 | 87 | 227 | – | – | – | NS(=O)(=O)c1cc(NC(=O)Cc2ccccc2F)cnc1-c1cnn(C(F)F)c1 [Example 321, N-{6-[1-(Difluoromethyl)-1H-pyrazol-4-yl]-5-sulfamoylpyridin-3-yl}-2-(2-fluorophenyl)acetamide]
7 | 25 | 155 | – | – | – | NS(=O)(=O)c1cc(NC(=O)Cc2ccccc2Cl)ccc1-c1cncc(C(F)(F)F)c1 [Example 331, 2-(2-Chlorophenyl)-N-{3-sulfamoyl-4-[5-(trifluoromethyl)pyridin-3-yl]phenyl}-acetamide]
8 | 37 | 117 | – | – | – | NS(=O)(=O)c1cc(NC(=O)Cc2ccccc2Cl)ccc1-c1cnn(C2CC2)c1 [Example 349, 2-(2-Chlorophenyl)-N-[4-(1-cyclopropyl-1H-pyrazol-4-yl)-3-sulfamoylphenyl]acetamide]
9 | 34 | – | 35 | 122 nM and 104 nM | – | NS(=O)(=O)c1cc(NC(=O)Cc2ccccc2Cl)cnc1-n1cc(Cl)cn1 [Example 387, 2-(2-Chlorophenyl)-N-[6-(4-chloro-1H-pyrazol-1-yl)-5-sulfamoylpyridin-3-yl]acetamide]
